Measurements taken from patent publication US20250290117A1, “MOLECULAR PHENOTYPIC ANTIMICROBIAL SUSCEPTIBILITY TESTING” (priority 2024, published 2025).

What was measured:
[1] = test system: E. coli; test: Molecular phenotypic antimicrobial susceptibility test with direct PCR (no extraction DNA purification step); type: cell-based, Escherichia coli
Description: Detection of Molecular Phenotypic Antimicrobial Susceptibility. Disclosed herein are the methods for the detection of phenotypic antimicrobial susceptibility via molecular methods. The present invention describes how a specimen 100 with a known microbial load is incubated and then exposed to a panel of antimicrobial agents to determine sensitivity (prevention of growth) or resistance (allowance of growth) to the specific antimicrobial agents tested utilizing molecular methods.
Sample Collection. Specimens 100 are collected from patients using sterile collection processes that are employed in routine clinical care. Specimens are transported to the testing facility in boric acid preservative. Specimens 100 are subsequently divided into a first sample 104 and a second sample 108.
Preparation of the Specimens for Testing. The specimens 100 are put through a pathogen identification process using PCR technology (e.g., using the first sample 104). The process for pathogen isolation includes steps of harvesting the pathogen (e.g., via centrifugation), isolating pathogen DNA via a DNA isolation and/or purification kit, and performing PCR on the pathogen DNA via PCR components (e.g., primers, enzymes, buffers) as would be known to the skilled artisan. Simultaneously, an additional aliquot of the same specimen (e.g., the second sample 108) is placed with liquid culture media and incubated for 4-6 hours. This aliquot is used for antimicrobial susceptibility testing if indicated based on the pathogen detection results. After pathogen identification is completed and if more than 10,000 cells/mL of bacteria (e.g., eligible bacteria) are detected in the source specimen, the second sample 108 then enters the antimicrobial susceptibility phase of testing. Specimens 100 with lower pathogen loads could also be utilized in the antibiotic susceptibility phase of testing with or without a longer incubation period.
Preparation of Antimicrobial Susceptibility Testing Plates. Antimicrobial solutions are prepared at known concentrations. The specific antimicrobials and their concentrations are selected based on the pathogen of interest and the described antimicrobial resistance breakpoints for that specimen pathogen and antimicrobial combination. These antimicrobials have been selected based on those commonly utilized by healthcare providers in routine clinical care for the specific type of suspected infection. The number and types of antimicrobials utilized can be customized based on the infection source, pathogen detected, patient-specific factors such as allergies or other health conditions (e.g., chronic kidney disease or concurrent medication use), or healthcare provider preferences such as antimicrobial availability or cost.
The antimicrobial solutions are prepared in liquid culture media (such as Muller Hinton Broth) to achieve the desired antimicrobial concentration and are then stored at −80° C. until use. For a given specimen, each antimicrobial is tested at a single or multiple antimicrobial concentration(s) which is its established breakpoints for sensitivity. The antimicrobial solutions are prepared and plated out for each specific pathogen. This allows ease of use on the day of testing after defrosting the plate 112. Table 1, which illustrates the results of molecular phenotypic antimicrobial susceptibility testing when more than one organism is present in the source specimen, provides an example of an antimicrobial plate 112 prepared for this purpose. Of note, control wells containing only culture media are present on all plates 112. This allows for evaluation of pathogen load when no antimicrobial is present.
Specimen Exposure to Antimicrobial Agents. The 1 mL aliquot of the specimen 100 previously mixed with culture media and incubated is obtained. Using optical density measurements as a guide, the specimen 100 is diluted to 0.5 McFarland. […]

[2] = test system: pathogens of clinical samples; test: Molecular phenotypic antimicrobial susceptibility test of clinical samples, extraction DNA purification step prior to PCR (Table 6); type: cell-based
In short: (§1)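 For direct PCR, exposed cultures are lysed in buffer in the thermal cycler, whereas purified runs first isolate DNA with magnetic beads. Pathogen-specific or universal targets are amplified semi-quantitatively after 12-16 h of antimicrobial exposure in Mueller Hinton Broth.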

[3] = test system: pathogens of clinical samples; test: Molecular phenotypic antimicrobial susceptibility test of clinical samples, direct PCR without a separate DNA purification step (Table 6); type: cell-based
In short: as §1

[4] = E. coli, clinical sample of r10-r24
[5] = E. coli, clinical sample of r158-r172
[6] = E. faecalis, clinical sample of r93-r99
[7] = E. faecalis, clinical sample of r100-r106
[8] = E. faecalis, clinical sample of r107-r113
[9] = E. faecalis, clinical sample of r114-r120
[10] = E. faecalis, clinical sample of r151-r157
[11] = K. aerogenes, clinical sample of r136-r150
[12] = K. pneumoniae, clinical sample of r121-r135
[13] = M. morganii, clinical sample of r55-r69
[14] = M. morganii, clinical sample of r70-r84
[15] = P. mirabilis, clinical sample of r25-r39
[16] = P. mirabilis, clinical sample of r40-r54

CC1(C)S[C@@H]2[C@H](NC(=O)[C@H](N)c3ccccc3)C(=O)N2[C@H]1C(=O)O [Ampicillin]
Molecular Antimicrobial Susceptibility Result ([1]; E. coli #1 - WDCM 00090 - 6.2×E3, specimen with <10,000 cells/mL, direct PCR after 16 hours of incubation): Sensitive (Antimicrobial wells with pathogen load detected below the control wells (typically >2 cycle thresholds later) may be reported as Sensitive)
Ct at Sensitive Breakpoint ([1]; E. coli #1 - WDCM 00090 - 6.2×E3, specimen with <10,000 cells/mL, direct PCR after 16 hours of incubation, Ct at control 13.787): 25.93
Molecular Antimicrobial Susceptibility Result ([1]; E. coli #2 - WDCM 00090 - 6.2×E3, specimen with <10,000 cells/mL, direct PCR after 16 hours of incubation): Sensitive (Antimicrobial wells with pathogen load detected below the control wells (typically >2 cycle thresholds later) may be reported as Sensitive)
Ct at Sensitive Breakpoint ([1]; E. coli #2 - WDCM 00090 - 6.2×E3, specimen with <10,000 cells/mL, direct PCR after 16 hours of incubation, Ct at control 13.46): 26.22
Ct at Sensitive Breakpoint ([1]; E. coli isolate JJ1887, direct PCR, Ct at control (average) 12.832): 12.265
Molecular Antimicrobial Susceptibility Result ([1]; E. coli isolate JJ1887, direct PCR, at sensitive breakpoint): Resistant
Molecular Antibiotic Susceptibility Result [2, 4]: Resistant
Molecular Antibiotic Susceptibility Result [2, 5]: Sensitive (Antimicrobial wells with pathogen load detected below the control wells (typically >2 cycle thresholds later) may be reported as Sensitive)
Ct ([2]; E. coli, clinical sample of r158-r172, Ct Control Avg 20.146): 29.961
Molecular Antibiotic Susceptibility Result [2, 6]: Sensitive (Antimicrobial wells with pathogen load detected below the control wells (typically >2 cycle thresholds later) may be reported as Sensitive)
Ct ([2]; E. faecalis, clinical sample of r93-r99, Ct Control Avg 22.987): 31.697
Molecular Antibiotic Susceptibility Result [2, 7]: sensitive
Ct ([2]; E. faecalis, clinical sample of r100-r106, Ct Control Avg 23.073): 37.6
Molecular Antibiotic Susceptibility Result [2, 8]: sensitive
Ct ([2]; E. faecalis, clinical sample of r107-r113, Ct Control Avg 22.144): 29.684
Molecular Antibiotic Susceptibility Result [2, 9]: Sensitive (Antimicrobial wells with pathogen load detected below the control wells (typically >2 cycle thresholds later) may be reported as Sensitive)
Ct ([2]; E. faecalis, clinical sample of r114-r120, Ct Control Avg 20.822): 33.01
Molecular Antibiotic Susceptibility Result [2, 10]: Sensitive (Antimicrobial wells with pathogen load detected below the control wells (typically >2 cycle thresholds later) may be reported as Sensitive)
Ct ([2]; E. faecalis, clinical sample of r151-r157, Ct Control Avg 20.56): Undet
Molecular Antibiotic Susceptibility Result [2, 11]: Resistant
Ct ([2]; K. aerogenes, clinical sample of r136-r150, Ct Control Avg 19.994): 19.504
Molecular Antibiotic Susceptibility Result [2, 12]: Resistant
Ct ([2]; K. pneumoniae, clinical sample of r121-r135, Ct Control Avg 24.272): 21.189
Molecular Antibiotic Susceptibility Result [2, 13]: Resistant
Ct ([2]; M. morganii, clinical sample of r55-r69, Ct Control Avg 28.86): 25.767
Molecular Antibiotic Susceptibility Result [2, 14]: Resistant
Ct ([2]; M. morganii, clinical sample of r70-r84, Ct Control Avg 27.053): 25.947
Molecular Antibiotic Susceptibility Result [2, 15]: Sensitive (Antimicrobial wells with pathogen load detected below the control wells (typically >2 cycle thresholds later) may be reported as Sensitive)
Ct ([2]; P. mirabilis, clinical sample of r25-r39, Ct Control Avg 26.064): 34.177
Molecular Antibiotic Susceptibility Result [2, 16]: Sensitive (Antimicrobial wells with pathogen load detected below the control wells (typically >2 cycle thresholds later) may be reported as Sensitive)
Ct ([2]; P. mirabilis, clinical sample of r40-r54, Ct Control Avg 26.987): 35.741
Molecular Antibiotic Susceptibility Result [3, 4]: Resistant
Ct ([3]; E. coli, clinical sample of r10-r24, Ct control avg 12.97): 12.039
Molecular Antibiotic Susceptibility Result [3, 5]: Sensitive (Antimicrobial wells with pathogen load detected below the control wells (typically >2 cycle thresholds later) may be reported as Sensitive)
Ct ([3]; E. coli, clinical sample of r158-r172, Ct control avg 12.894): 28.274
Molecular Antibiotic Susceptibility Result [3, 6]: Sensitive (Antimicrobial wells with pathogen load detected below the control wells (typically >2 cycle thresholds later) may be reported as Sensitive)
Ct ([3]; E. faecalis, clinical sample of r93-r99, Ct control avg 22.011): 29.527
Molecular Antibiotic Susceptibility Result [3, 7]: sensitive
Ct ([3]; E. faecalis, clinical sample of r100-r106, Ct control avg 21.027): 33.467
Molecular Antibiotic Susceptibility Result [3, 8]: sensitive
Ct ([3]; E. faecalis, clinical sample of r107-r113, Ct control avg 20.529): 27.555
Molecular Antibiotic Susceptibility Result [3, 9]: Sensitive (Antimicrobial wells with pathogen load detected below the control wells (typically >2 cycle thresholds later) may be reported as Sensitive)
Ct ([3]; E. faecalis, clinical sample of r114-r120, Ct control avg 20.909): 27.767
Molecular Antibiotic Susceptibility Result [3, 10]: Sensitive (Antimicrobial wells with pathogen load detected below the control wells (typically >2 cycle thresholds later) may be reported as Sensitive)
Ct ([3]; E. faecalis, clinical sample of r151-r157, Ct control avg 18.551): 32.884
Molecular Antibiotic Susceptibility Result [3, 11]: Sensitive (Antimicrobial wells with pathogen load detected below the control wells (typically >2 cycle thresholds later) may be reported as Sensitive)
Ct ([3]; K. aerogenes, clinical sample of r136-r150, Ct control avg 13.854): 16.046
Molecular Antibiotic Susceptibility Result [3, 12]: Resistant
Ct ([3]; K. pneumoniae, clinical sample of r121-r135, Ct control avg […]): 14.269
Molecular Antibiotic Susceptibility Result [3, 13]: Resistant
Ct ([3]; M. morganii, clinical sample of r55-r69, Ct control avg 12.09): 10.538
Molecular Antibiotic Susceptibility Result [3, 14]: Resistant
Ct ([3]; M. morganii, clinical sample of r70-r84, Ct control avg 11.677): 11.867
Molecular Antibiotic Susceptibility Result [3, 15]: Sensitive (Antimicrobial wells with pathogen load detected below the control wells (typically >2 cycle thresholds later) may be reported as Sensitive)
Ct ([3]; P. mirabilis, clinical sample of r25-r39, Ct control avg 11.801): 29.219
Molecular Antibiotic Susceptibility Result [3, 16]: Sensitive (Antimicrobial wells with pathogen load detected below the control wells (typically >2 cycle thresholds later) may be reported as Sensitive)
Ct ([3]; P. mirabilis, clinical sample of r40-r54, Ct control avg 10.06): 30.995
